Data published in patent US9321757B2, “Heterocyclic compound” (Takeda Pharmaceutical Company Limited, priority 2013, dated 2016).

Molecular target: T1, IRAK-4 (Homo sapiens, UniProt Q9NWZ3)
T1 construct: purchased Carna Biosciences, Inc
T1 sequence (Q9NWZ3 1-460): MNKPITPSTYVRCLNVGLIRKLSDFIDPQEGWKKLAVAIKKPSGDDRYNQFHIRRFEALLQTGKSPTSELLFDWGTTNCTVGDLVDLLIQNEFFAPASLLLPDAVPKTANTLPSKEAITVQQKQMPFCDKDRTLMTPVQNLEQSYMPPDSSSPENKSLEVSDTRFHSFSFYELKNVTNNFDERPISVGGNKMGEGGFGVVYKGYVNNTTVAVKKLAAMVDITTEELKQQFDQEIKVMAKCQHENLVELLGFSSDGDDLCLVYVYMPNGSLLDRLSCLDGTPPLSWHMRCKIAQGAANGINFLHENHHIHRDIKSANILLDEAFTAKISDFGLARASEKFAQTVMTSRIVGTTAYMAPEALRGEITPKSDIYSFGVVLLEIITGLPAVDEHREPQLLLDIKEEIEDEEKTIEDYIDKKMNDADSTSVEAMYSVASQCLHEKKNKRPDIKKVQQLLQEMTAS
Assay: IRAK-4 Enzyme Inhibition Test (LANCE method)
Assay type: biochemical
Conditions: compound concentration 1 μM; well without enzyme = 100% inhibition
Experimental: IRAK-4 enzyme inhibitory activities of test compounds were measured by LANCE method (PerkinElmer). First, a test compound diluted with assay buffer (50 mM HEPES (pH7.5), 10 mM MgCl2, 1 mM EGTA, 2 mM DTT, 0.01% Tween 20, 0.01% BSA) was added to 384-well plate at 2 μL each. Then, IRAK-4 (Carna Biosciences, Inc.) and a fluorescence-labeled peptide substrate (ULight-ACC peptide, PerkinElmer) solution diluted with assay buffer at 240 ng/mL and 37.5 nM, respectively were added at 2 μL each. Then, enzyme reaction was started by adding 2 μL each of ATP solution prepared with assay buffer at 1.5 mM. After the reaction at room temperature for 1 hr, Detection Buffer (PerkinElmer) prepared to be 20 mM EDTA, 1 nM europium-labeled anti-phospho ACC antibody (PerkinElmer) was added at 6 μL each. After standing at room temperature for 1 hr, fluorescence intensity (excitation wavelength 340 nm, fluorescence wavelength 665 nm, delay time 100 microseconds) was measured by a plate reader, Envision (PerkinElmer). The inhibitory activity of each compound was calculated as relative value where fluorescence intensity of a well without enzyme is considered as 100% inhibition.

| Compound | IRAK4 enzyme inhibitory rate (%) at 1 μM [%] |
| --- | --- |
| CN(C)CC1CN(c2nn(C)cc2NC(=O)c2coc(-c3ccnc(NCC(F)(F)F)c3)n2)C(=O)C1(C)C (stereo not shown) [Example 62, N-(3-(4-((dimethylamino)methyl)-3,3-dimethyl-2-oxopyrrolidin-1-yl)-1-methyl-1H-pyrazol-4-yl)-2-(2-((2,2,2-trifluoroethyl)amino)pyridin-4-yl)-1,3-oxazole-4-carboxamide] | 100 |

Same assay, conditions: compound concentration 1 μM; well without enzyme = 100% inhibition; read-out: IRAK4 enzyme inhibitory rate (%) at 1 μM

| Compound | inhibition at 1 µM [%] |
| --- | --- |
| CN(C)CC1CN(c2nn(C)cc2NC(=O)c2coc(-c3ccnc(NCC(F)(F)F)c3)n2)C(=O)C1(C)C (stereo not shown) [Example 61, N-(3-(4-((dimethylamino)methyl)-3,3-dimethyl-2-oxopyrrolidin-1-yl)-1-methyl-1H-pyrazol-4-yl)-2-(2-((2,2,2-trifluoroethyl)amino)pyridin-4-yl)-1,3-oxazole-4-carboxamide] | 100 |
| Cn1cc(NC(=O)c2cccc(N3CC4(CCNC4)NC3=O)n2)c(N2CCC(C)(C)C2=O)n1 (stereo not shown) [Example 206, N-(3-(3,3-dimethyl-2-oxopyrrolidin-1-yl)-1-methyl-1H-pyrazol-4-yl)-6-(2-oxo-1,3,7-triazaspiro[4.4]non-3-yl)pyridine-2-carboxamide] | 100 |
| Cn1cc(NC(=O)c2coc(-c3ccnc(NCC(F)(F)F)c3)n2)c(N2CCC(C)(C)C2=O)n1 [Example 13, N-(3-(3,3-dimethyl-2-oxopyrrolidin-1-yl)-1-methyl-1H-pyrazol-4-yl)-2-(2-((2,2,2-trifluoroethyl)amino)pyridin-4-yl)-1,3-oxazole-4-carboxamide] | 98 |
| CC(O)CN1CCN(c2nn(C)cc2NC(=O)c2coc(-c3ccnc(NCC(F)(F)F)c3)n2)C1=O (stereo not shown) [Example 164, N-(3-(3-(2-hydroxypropyl)-2-oxoimidazolidin-1-yl)-1-methyl-1H-pyrazol-4-yl)-2-(2-((2,2,2-trifluoroethyl)amino)pyridin-4-yl)-1,3-oxazole-4-carboxamide] | 98 |
| CN(C)CC1CC(=O)N(c2nn(C)cc2NC(=O)c2coc(-c3ccnc(NCC(F)(F)F)c3)n2)C1 (stereo not shown) [Example 3, N-(3-(4-((dimethylamino)methyl)-2-oxopyrrolidin-1-yl)-1-methyl-1H-pyrazol-4-yl)-2-(2-((2,2,2-trifluoroethyl)amino)pyridin-4-yl)-1,3-oxazole-4-carboxamide] | 100 |
| C[C@H]1CCN(c2nn(C)cc2NC(=O)c2coc(-c3ccnc(NCC(F)(F)F)c3)n2)C1=O [Example 77, N-(1-methyl-3-((3S)-3-methyl-2-oxopyrrolidin-1-yl)-1H-pyrazol-4-yl)-2-(2-((2,2,2-trifluoroethyl)amino)pyridin-4-yl)-1,3-oxazole-4-carboxamide] | 99 |
| CC1CCN(c2nn(C)cc2NC(=O)c2coc(-c3ccnc(NCC(F)(F)F)c3)n2)C1=O (stereo not shown) [Example 2, N-(1-methyl-3-(3-methyl-2-oxopyrrolidin-1-yl)-1H-pyrazol-4-yl)-2-(2-((2,2,2-trifluoroethyl)amino)pyridin-4-yl)-1,3-oxazole-4-carboxamide] | 98 |
| Cn1cc(NC(=O)c2cccc(N3C[C@@H](CN)NC3=O)n2)c(N2CCC(C)(C)C2=O)n1 [Example 199, 6-((4R)-4-(aminomethyl)-2-oxoimidazolidin-1-yl)-N-(3-(3,3-dimethyl-2-oxopyrrolidin-1-yl)-1-methyl-1H-pyrazol-4-yl)pyridine-2-carboxamide] | 99 |
| Cc1cccc(C(=O)Nc2cn(C)nc2N2CCC(C)(C)C2=O)n1 [Example 36, N-(3-(3,3-dimethyl-2-oxopyrrolidin-1-yl)-1-methyl-1H-pyrazol-4-yl)-6-methylpyridine-2-carboxamide] | 36 |
| Cn1cc(NC(=O)c2ccn(C(F)F)n2)c(N2CCC(C)(C)C2=O)n1 [Example 40, 1-(difluoromethyl)-N-(3-(3,3-dimethyl-2-oxopyrrolidin-1-yl)-1-methyl-1H-pyrazol-4-yl)-1H-pyrazole-3-carboxamide] | 56 |
| Cn1cc(NC(=O)c2coc(-c3ccnc(NCC4CC4)c3)n2)c(N2CCN(CCO)C2=O)n1 [Example 59, 2-(2-((cyclopropylmethyl)amino)pyridin-4-yl)-N-(3-(3-(2-hydroxyethyl)-2-oxoimidazolidin-1-yl)-1-methyl-1H-pyrazol-4-yl)-1,3-oxazole-4-carboxamide] | 100 |
| Cn1cc(NC(=O)c2coc(-c3ccnc(NCC(F)(F)F)c3)n2)c(N2CCOC2=O)n1 [Example 55, N-(1-methyl-3-(2-oxo-1,3-oxazolidin-3-yl)-1H-pyrazol-4-yl)-2-(2-((2,2,2-trifluoroethyl)amino)pyridin-4-yl)-1,3-oxazole-4-carboxamide] | 99 |
| Cc1cccc(C(=O)Nc2cn(C)nc2N2CCC(C)(C)C2=O)c1 [Example 46, N-(3-(3,3-dimethyl-2-oxopyrrolidin-1-yl)-1-methyl-1H-pyrazol-4-yl)-3-methylbenzamide] | 30 |
| CN1CCN(c2nn(C)cc2NC(=O)c2coc(-c3ccnc(NCC(F)(F)F)c3)n2)C1=O [Example 48, N-(1-methyl-3-(3-methyl-2-oxoimidazolidin-1-yl)-1H-pyrazol-4-yl)-2-(2-((2,2,2-trifluoroethyl)amino)pyridin-4-yl)-1,3-oxazole-4-carboxamide] | 99 |
| CN1CCN(c2nn(C)cc2NC(=O)c2cccc(N3CC4(CCNC4)NC3=O)n2)C1=O (stereo not shown) [Example 215, N-(1-methyl-3-(3-methyl-2-oxoimidazolidin-1-yl)-1H-pyrazol-4-yl)-6-(2-oxo-1,3,7-triazaspiro[4.4]non-3-yl)pyridine-2-carboxamide] | 100 |
| C[C@H]1C(O)C(C)(C)C(=O)N1c1nn(C)cc1NC(=O)c1coc(-c2ccnc(NCC(F)(F)F)c2)n1 (stereo partly drawn) [Example 17, N-(3-((5S)-4-hydroxy-3,3,5-trimethyl-2-oxopyrrolidin-1-yl)-1-methyl-1H-pyrazol-4-yl)-2-(2-((2,2,2-trifluoroethyl)amino)pyridin-4-yl)-1,3-oxazole-4-carboxamide] | 77 |
| Cn1cc(NC(=O)c2coc(-c3ccnc(NCC(F)(F)F)c3)n2)c(N2CC(CO)C(C)(C)C2=O)n1 (stereo not shown) [Example 101, N-(3-(4-(hydroxymethyl)-3,3-dimethyl-2-oxopyrrolidin-1-yl)-1-methyl-1H-pyrazol-4-yl)-2-(2-((2,2,2-2-trifluoroethyl)amino)pyridin-4-yl)-1,3-oxazole-4-carboxamide] | 99 |
| CN(C)[C@H]1CC(=O)N(c2nn(C)cc2NC(=O)c2coc(-c3ccnc(NCC(F)(F)F)c3)n2)C1 [Example 16, N-(3-((4S)-4-(dimethylamino)-2-oxopyrrolidin-1-yl)-1-methyl-1H-pyrazol-4-yl)-2-(2-((2,2,2-trifluoroethyl)amino)pyridin-4-yl)-1,3-oxazole-4-carboxamide] | 98 |
| CNCC1CN(c2nn(C)cc2NC(=O)c2coc(-c3ccnc(NCC(F)(F)F)c3)n2)C(=O)N1C (stereo not shown) [Example 110, N-(1-methyl-3-(3-methyl-4-((methylamino)methyl)-2-oxoimidazolidin-1-yl)-1H-pyrazol-4-yl)-2-(2-((2,2,2-trifluoroethyl)amino)pyridin-4-yl)-1,3-oxazole-4-carboxamide] | 98 |
| Cn1cc(NC(=O)c2coc(-c3ccnc(NCC(F)F)c3)n2)c(N2CCN(CCO)C2=O)n1 [Example 60, 2-(2-((2,2-difluoroethyl)amino)pyridin-4-yl)-N-(3-(3-(2-hydroxyethyl)-2-oxoimidazolidin-1-yl)-1-methyl-1H-pyrazol-4-yl)-1,3-oxazole-4-carboxamide] | 99 |
| Cn1cc(NC(=O)c2coc(-c3ccnc(NCC(F)(F)F)c3)n2)c(N2C[C@@H](O)CC2=O)n1 [Example 1, N-(3-((4S)-4-hydroxy-2-oxopyrrolidin-1-yl)-1-methyl-1H-pyrazol-4-yl)-2-(2-((2,2,2-trifluoroethyl)amino)pyridin-4-yl)-1,3-oxazole-4-carboxamide] | 98 |
